In patent US20220249511A1, “METHODS FOR THE TREATMENT OF KELOID, HYPERTROPHIC SCARS AND/OR HYPERPIGMENTATION DISORDERS” (INSERM (INSTITUT NATIONAL DE LA SANTÉ ET DE LA RECHERCHE …, priority 2019, published 2022):

How the values were obtained:
[1] = test system: hypertrophic and keloids scars; experiment: Cohort of PROS patients treated with oral BYL719: hypertrophic and keloid scars; type: in vivo, human; conditions: daily dose of 250 mg in adults or 50 mg in children, FIG. 1
Description: (§1) The cohort is composed by 19 patients including 15 children (ranging from 4 to 50 years old). Children received 50 mg daily while adults received 250 mg daily. BYL719 was delivered orally every morning with breakfast. Patients were followed at regular intervals:
(§2) weekly for 8 weeks, every two weeks for 1 month and then monthly. All patients underwent clinical examination, and areas of overgrowth, nevi as well as visible scars were photographed before and after BYL719 introduction. All pictures were taken by a single operator, always using the same camera (12-megapixel camera), in the same room and at the same distance. […] Length and surface of the scars were measured using Image J.

nevi = experiment: Cohort of PROS patients treated with oral BYL719: nevus color (visual scale); type: in vivo, human; conditions: arbitrary visual scale 5: dark color to 1: normal skin color, FIG. 1
Description: as §1, §2
As shown on FIG. 1, inventors have observed that during treatment with oral BYL719, the length, the area and the thickness of the different scars were dramatically reducing without additional treatment. […] Nevus color was evaluated using an arbitrary visual scale ranging from (5: dark color to 1: normal skin color).

burn scar = experiment: PROS patient treated with oral BYL719: burn scar; type: in vivo, human; conditions: one PROS patient with a large burn scar on the left thigh, FIG. 2
Description: as §1, §2

AKT/mTOR pathway [2] = experiment: Western blot of P-AKT and P-S6RP in primary fibroblasts derived from pathological scars; type: cell-based, human; conditions: starved 12 hours, exposed 24 h, vs DMSO, FIG. 3A
Description: (§3) Skin samples (hypertrophic, keloids and burn scars) were collected during surgical procedures. To generate dermal fibroblast cultures, skin samples were minced and incubated at room temperature in 0.05% trypsin-EDTA (ThermoFisher) solution for 30 min with gentle shaking. Cells were collected by centrifuging at 700 g for 10 min, resuspended in cell culture media containing 25% FBS, and plated onto 24 well plates to establish lines. Fibroblast cultures were grown and maintained in 1× MEM (Corning) supplemented with 25% FBS and penicillin/streptomycin (Corning) to a final concentration of 100 IU penicillin and 500 μg.mL-1 streptomycin.
(§4) Cells at similar population doubling were plated 1:4 from confluent cultures and allowed to grow until ˜80% confluent. Cells were then starved during 12 hours and exposed during 24 h to either BYL719 (0.1 or 1 μmol.L-1; MedChem Express), taselisib (0.1 or 2. μmol.L-1; MedChem Express) or miransertib (0.1 or […]) or equal volume of DMSO. We also performed ex vivo keloid scars culture. Keloids were exposed during 24h to either BYL719 (0.1 or 1 μmol.L-1; MedChem Express) or equal volume of DMSO.
Cultures were rinsed with 1X PBS, treated for 10 min with 0.05% Trypsin, collected by centrifugation at 4° C., and pellets were flash frozen on dry ice. Protein lysates were collected by directly adding 1× RIPA buffer containing protease and phosphatase inhibitors. Each experiment was performed in duplicate and repeated at least three times
Western blots were performed as previously described^31. Briefly, protein extracts from the scars and primary culture of fibroblasts were resolved by SDS-PAGE before being transferred onto the appropriate membrane and incubated with anti-P-AKT (Ser473) antibody (Cell Signaling Technology, ref# 4060), anti-P-S6RP antibody (Cell Signaling Technology, ref# 5364) and anti-GAPDH (Merck Millipore, ref#374), followed by the appropriate peroxidase-conjugated secondary antibody. […]

[3] = test system: primary fibroblasts derived from pathological scars; experiment: Proliferation of primary fibroblasts derived from pathological scars; type: cell-based, human; conditions: exposed 24 h, vs DMSO, FIG. 3B
Description: (§5) Paraffin-embedded kidney sections (4-um) were incubated with anti-P-AKT (Ser473) antibody (Cell Signaling Technology, ref# 4060), anti-P-S6RP antibody (Cell Signaling Technology, ref# 5364), anti-a-smooth muscle cell antibody (Sigma Aldrich, ref# A5228), and anti-KI67 antibody (Thermo Fisher Scientific, ref# RM-9106-51) Immunofluorescence studies were analyzed using a Zeiss LSM 700 confocal microscope.
as §3, §4

Tgfβ mRNA [4] = experiment: Tgfβ mRNA expression in primary fibroblasts derived from pathological scars; type: cell-based, human; conditions: exposed 24 h, vs DMSO, FIG. 3C
Description: as §3, §4
(§6) Total RNA was isolated from snap-frozen kidneys using the TRIzol reagent (Sigma) according to the manufacture's protocol. First-strand cDNA was synthesized using the MML-V reverse transcriptase (Promega, USA). Real-time PCR was performed using the iQ-SYBR Green supermix (BioRad) and the iQ5 Multicolor Real-Time PCR Detection System (BioRad) for mRNA detection. 18S rRNA was used as a house keeping gene.

AKT/mTOR pathway [5] = experiment: Western blot of ex vivo keloid scars culture; type: cell-based, human; conditions: ex vivo keloids exposed 24h to 0.1 or 1 μmol.L-1, vs DMSO; FIG. 3D
Description: as §4
Western blots were performed as previously described^31. Briefly, protein extracts from the scars and primary culture of fibroblasts were resolved by SDS-PAGE before being transferred onto the appropriate membrane and incubated with anti-P-AKT (Ser473) antibody (Cell Signaling Technology, ref# 4060), anti-P-S6RP antibody (Cell Signaling Technology, ref# 5364) and anti-GAPDH (Merck Millipore, ref#374), followed by the appropriate peroxidase-conjugated secondary antibody. Chemiluminescence was acquired using a Fusion FX7 camera (Vilbert Lourmat) and densitometry was performed using the Bio1D software (Certain Tech).

keloids = experiment: Proliferation rate in ex vivo keloid scars culture; type: cell-based, human; conditions: ex vivo keloids exposed 24h to 0.1 or 1 μmol.L-1, vs DMSO; FIG. 3E
Description: as §5, §4

Tgfβ mRNA [6] = experiment: Tgfβ mRNA expression in ex vivo keloid scars culture; type: cell-based, human; conditions: ex vivo keloids exposed 24h to 0.1 or 1 μmol.L-1, vs DMSO; FIG. 3F
Description: as §4, §6

SMILES: Cc1nc(NC(=O)N2CCC[C@H]2C(N)=O)sc1-c1ccnc(C(C)(C)C(F)(F)F)c1 [BYL719, Alpelisib]
- length of the hypertrophic and keloids scars [1]: progressive improvement
- surface area of the hypertrophic and keloids scars [1]: progressive improvement
- thickness of the hypertrophic and keloids scars [1]: progressive improvement
- nevus color (nevi): spontaneously decolorating
- size of the burn scar (burn scar): reduction in size
- AKT/mTOR pathway (P-AKT and P-S6RP in WB) (AKT/mTOR pathway [2]): efficiently block
- proliferation [3]: reduced
- mRNA expression of Tgfβ, a marker of fibrosis (Tgfβ mRNA [4]): reduced
- AKT/mTOR pathway (Western blot) (AKT/mTOR pathway [5]): inhibits
- proliferation rate (keloids): reduce
- Tgfβ mRNA expression (Tgfβ mRNA [6]): reduce

SMILES: Nc1ncccc1-c1nc2ccc(-c3ccccc3)nc2n1-c1ccc(C2(N)CCC2)cc1 [miransertib, Miransertib]
- AKT/mTOR pathway (P-AKT and P-S6RP in WB) (AKT/mTOR pathway [2]): efficiently block
- proliferation [3]: reduced
- mRNA expression of Tgfβ, a marker of fibrosis (Tgfβ mRNA [4]): reduced

SMILES: Cc1nc(-c2cn3c(n2)-c2ccc(-c4cnn(C(C)(C)C(N)=O)c4)cc2OCC3)n(C(C)C)n1 [taselisib, Taselisib]
- AKT/mTOR pathway (P-AKT and P-S6RP in WB) (AKT/mTOR pathway [2]): efficiently block
- proliferation [3]: reduced
- mRNA expression of Tgfβ, a marker of fibrosis (Tgfβ mRNA [4]): reduced
